Measured values from patent publication US11958869B2, “Ruthenium arene Schiff-base complexes and uses thereof” (CITY UNIVERSITY OF HONG KONG, priority 2021, dated 2024).
Read-outs that look alike come from different tables or passages of the source.

Experiments:
Format in all cases: cell-based
[1] = tested on: MCF-7; experiment: cells; settings: for IC50: read-out: IC50 (μM) MCF-7 72 h
Method: (§1) Cells were seeded in 96-well plates and maintained for 14-16 hours, then were treated with dimethylsulfoxide (DMSO) or test compound at various concentrations (i.e., 0.312, 1.25, 5, 20 μM) for 72 hrs. The cells were then washed with phosphate buffer saline (PBS) twice, added a medium containing 3-(4,5-dimethylthiazol-2-yl)-2,5-diphenyltetrazolium bromide (MTT) at a final concentration of 0.5 mg/mL, and incubated for 4 hr at 37° C. in a humidified incubator containing 5% CO2 in air. Cells having functional succinate dehydrogenase of mitochondria would convert MTT to formazan. Then, the medium was replaced with 100 μL of DMSO for 30 min at room temperature, and the 96-well plate was read by an ELISA reader at 550 nm to get the absorbance density values. The IC50 values of death cell lines were calculated accordingly.
(§2) The Ru^TEN complexes of Example 1 were evaluated for their anti-proliferative properties in two breast cancer cell lines, namely, MCF-7 and MDA-MB-231 cells via MTT assay. […] MCF-7 is a chemotherapy-responsive breast cancer cell line of luminal subtype with high expression of estrogen receptor (ER), whereas MDA-MB-231 is a triple negative breast cancer (TNBC) or basal-like breast cancer cell ine. TNBC is defined as highly invasive cancer that lacks expression of ER, progesterone receptor (PR) and Her-2; it has one of the worst outcomes among all subtypes of breast cancers. The aggressive nature of TNBC may be related to the presence of breast cancer stem cells within the tumor; therefore, MDA-MB-231 cells are often used as a model of mammary cancer stem cells.
(§3) The cytotoxicity of Ru^TEN complexes of Example 1 was compared to that of cisplatin or oxaliplatin, which were known to induce their anticancer effects by the mode of action different from ER stress. Three CSC-selective organic compounds, salinomycin, etoposide and abamectin, were also used for comparison. Briefly, MCF-7 and MDA-MB-231 cells were respectively treated with increasing concentrations of compounds of interest for 24 or 72 hrs and then the cell viability was measured.

[2] = tested on: ALDHbright subpopulation of MDA-MB-231 cells; experiment: ALDEFLUOR assay (ALDH activity); settings: versus control, FIG. 3
Method: The cells were stained with […] bodipy-aminoacetaldehyde (BAAA), and then cultured at 37° C. for 45 minutes. An ALDH1 inhibitor, diethyl aminobenzaldehyde (DEAB), was used as the negative control. The stained cells were assayed using BD FACS Aria III. In this case, the positive fluorescent ALDH1-expressed cells (ALDH+) were detected in a green fluorescent channel (520 to 540 nm).
While CD44+/CD24−/low phenotype has often been associated with breast CSC/progenitor cell features, yet there is no correlation between the presence of CD44+/CD24−/low cells and clinical outcome and formation of distant metastases. It is the presence of aldehyde dehydrogenase (ALDH) bright cells which separates highly tumorigenic CD44+/CD24−/low/ALDHbright population from non-tumorigenic cells. Unlike CD44+/CD24−/low, ALDH is a predictor of metastasis and is associated with a poor clinical outcome. The main role of ALDH enzymes is the detoxification of aldehydes generated in various metabolic processes into carboxylic acids. However, several ALDH isoforms are involved in retinoic acid signaling and this particular function was linked to the “stemness” of CSCs. The functional activity of ALDHs can be accurately determined by ascertaining the cellular conversion of […] (BAAA) into a fluorescent molecule BODIPY-aminoacetate (BAA). ATP-binding cassette (ABC)-transporter inhibitors in the assay buffer prevent the efflux of BAA from the cells, resulting in the accumulation of BAA in cytoplasm.

[3] = tested on: MDA-MB-231 mammospheres; experiment: Cytotoxicity in MDA-MB-231 mammospheres (Table 2); settings: read-out: IC50 (μM) MDA-MB-231 mammospheres 72 h
[4] = tested on: MDA-MB-231; experiment: Anti-proliferative activity (MTT assay), MDA-MB-231
Method: as §1, §2, §3

[5] = tested on: MDA-MB-231 mammospheres; experiment: Mammosphere formation assay, MDA-MB-231 primary; settings: for Number of MDA-MB-231 mammospheres / Size (μm) of MDA-MB-231 mammospheres: primary mammospheres grown 96 hr, incubated with compound 72 hrs, >50 μm analyzed; for decrease in number of MDA-MB-231 mammospheres / decrease in size of MDA-MB-231 mammospheres: versus control
Method: (§4) Since the breast cancer stem cells formed a mass of colonies in the form of floating spheres without attaching to a surface of a plate, the size and number of the masses were observed by a mammosphere formation assay to determine a cancer-stem-cell-specific effect.
(§5) Single-cell suspension was cultured at a density of 1,000 to 15,000 cells/well using a MammoCult™ Human Medium kit (Stemcell Technologies Inc Vancouver, CA), and the spherical cells were counted and observed under a microscope.
(§6) The mammosphere assay is based on the concept that when cells proliferate in three-dimensional spheroid structures, only cancer cells with stem-like characteristics are able to evade anoikis.

[6] = tested on: MDA-MB-231 mammospheres; experiment: Viability of MDA-MB-231 mammospheres, Alamar Blue assay (Table 1); settings: for IC50: read-out: IC50 (μM), growth of MDA-MB-231 mammospheres
[7] = tested on: MCF-7 mammospheres; experiment: Mammosphere formation assay, MCF-7; settings: for Number of MCF-7 mammospheres / Size (μm) of MCF-7 mammospheres: primary mammospheres grown 96 hr, incubated with compound 72 hrs, >50 μm analyzed; for decrease in number of MCF-7 mammospheres / decrease in size of MCF-7 mammospheres: versus control
Method: as §4, §5, §6

[8] = tested on: MDA-MB-231 secondary mammospheres; experiment: Secondary mammosphere formation (self-renewal), MDA-MB-231; settings: for Number of MDA-MB-231 secondary mammospheres / Size (μm) of MDA-MB-231 secondary mammospheres: from drug-treated primary mammospheres, grown in drug-free conditions for 7 days; for propensity to form secondary mammospheres: single cells from drug-treated primary mammospheres, 7 days drug-free, FIG. 2
Method: To this purpose, drug-treated primary MDA-MB-231 mammospheres were dissociated into single cell suspensions and incubated for 7 days in ultralow attachment drug-free conditions.

[9] = tested on: MDA-MB-231 mammospheres; experiment: Invasion / dispersion of spheroids into 3D collagen; settings: cells incubated with compound 72 hr, FIG. 4
From the text: CSCs are associated with highly invasive phenotype and it is believed that this subset of cancer cells gives rise to metastases. In order to monitor the dissemination of MCF-7 and MDA-MB-231 breast cancer spheroids, the spheroids were embedded into three-dimensional (3D) collagen scaffold using Aim Biotech 3D cell culture chips. Collagen with spheroids was introduced into the central region of the microfluidic system where it polymerized via thermal cross-linking. Cell culture media was introduced into media channels forcing spheroids to move through collagen towards the media.
Thus, whether Ru^TEN complexes and salinomycin affected the invasive properties of MDA-MB-231 spheroids was then investigated. To this purpose, MDA-MB-231 monolayer cells were incubated with compounds of interest (e.g., Ru^TEN complexes of Examplel or salinomycin) for 72 hr, then the delamination was allowed to proceed for over 28 hr. Results are depicted in FIG. 4.

[10] = 24 h, MTT, read-out: IC50 (μM) MDA-MB-231 24 h
[11] = 72 h, MTT, read-out: IC50 (μM) MDA-MB-231 72 h

Molecule: N.N.[Cl][Pt][Cl] [Cisplatin, cisplatin]
- IC50 ([1]; 72 h, MTT): 22 ± 7 µM
- antiproliferative activity, MCF-7 ([1]; MTT): only moderately active
- reduction of ALDHbright sub-population [2]: did not affect ALDHbright cells
- IC50 ([3]; 72 h): > 40 µM
- IC50 [4, 10]: 268 ± 78 µM
- IC50 [4, 11]: 27 ± 8 µM
- antiproliferative activity, MDA-MB-231 ([4]; MTT): only moderately active
- inhibition of mammosphere growth, MDA-MB-231 [5]: did not show any potency in inhibiting mammosphere growth
- Number of MDA-MB-231 mammospheres [5]: 136 ± 44
- Size (μm) of MDA-MB-231 mammospheres [5]: 95 ± 25 μm
- viability of MDA-MB-231 mammospheres [6]: did not affect the viability
- inhibition of mammosphere growth, MCF-7 [7]: did not show any potency in inhibiting mammosphere growth
- Number of MCF-7 mammospheres [7]: 273 ± 108
- Size (μm) of MCF-7 mammospheres [7]: 106 ± 14 μm
- Number of MDA-MB-231 secondary mammospheres [8]: 67 ± 20
- Size (μm) of MDA-MB-231 secondary mammospheres [8]: 103 ± 30 μm

Molecule: COc1cc([C@@H]2c3cc4c(cc3[C@@H](O[C@@H]3O[C@@H]5CO[C@@H](C)O[C@H]5[C@H](O)[C@H]3O)[C@H]3COC(=O)[C@H]23)OCO4)cc(OC)c1O [Etoposide, etoposide]
- IC50 ([1]; Homo sapiens, MCF7, 72 h): 0.79 ± 0.21 µM
- reduction of ALDHbright sub-population [2]: 52%
- IC50 ([3]; Homo sapiens, MDA-MB-231, 72 h): > 40 µM
- IC50 ([4]; Homo sapiens, MDA-MB-231, 24 h, read-out: IC50 (μM) MDA-MB-231 24 h): > 1000 µM
- IC50 ([4]; Homo sapiens, MDA-MB-231, 72 h, read-out: IC50 (μM) MDA-MB-231 72 h): 6.4 ± 1.2 µM
- Number of MDA-MB-231 mammospheres [5]: 107 ± 37
- Size (μm) of MDA-MB-231 mammospheres [5]: 123 ± 20 μm
- decrease in number of MDA-MB-231 mammospheres [5]: 10-15%
- decrease in size of MDA-MB-231 mammospheres [5]: did not affect the size
- Number of MCF-7 mammospheres [7]: 237 ± 11
- Size (μm) of MCF-7 mammospheres [7]: 135 ± 6 μm
- decrease in number of MCF-7 mammospheres [7]: 10-15%
- decrease in size of MCF-7 mammospheres [7]: did not affect the size
- Number of MDA-MB-231 secondary mammospheres [8]: 73 ± 22
- Size (μm) of MDA-MB-231 secondary mammospheres [8]: 63 ± 4 μm

Molecule: O=C1[O][Pt]2([NH][C@@H]3CCCC[C@H]3[NH]2)[O]C1=O [Oxaliplatin, oxaliplatin]
- IC50 ([1]; 72 h, MTT): 1.1 ± 0.2 µM
- IC50 ([3]; 72 h): > 40 µM
- IC50 [4, 10]: 348 ± 78 µM
- IC50 [4, 11]: 4.6 ± 1 µM
- inhibition of mammosphere growth, MDA-MB-231 [5]: did not show any potency in inhibiting mammosphere growth
- Number of MDA-MB-231 mammospheres [5]: 144 ± 50
- Size (μm) of MDA-MB-231 mammospheres [5]: 99 ± 27 μm
- viability of MDA-MB-231 mammospheres [6]: did not affect the viability
- inhibition of mammosphere growth, MCF-7 [7]: did not show any potency in inhibiting mammosphere growth
- Number of MCF-7 mammospheres [7]: 274 ± 93
- Size (μm) of MCF-7 mammospheres [7]: 107 ± 17 μm
- Number of MDA-MB-231 secondary mammospheres [8]: 122 ± 10
- Size (μm) of MDA-MB-231 secondary mammospheres [8]: 86 ± 14 μm

Molecule: COc1ccc([N+]2=Cc3ccc4ccccc4[n+]3[Ru-]2[Cl])cc1.Cc1c(C)c(C)c(C)c(C)c1C.[Cl-] [Ru^TEN2, [(η6-hexamethylbenzene)RuCl(4-methoxv-N-(2-quinolinyl-methylene)-aniline)]Cl]
- IC50 ([1]; 72 h, MTT): 4.1 ± 0.9 µM
- IC50 ([3]; 72 h): > 40 µM
- IC50 [4, 10]: 10 ± 1 µM
- IC50 [4, 11]: 2.2 ± 0.3 µM
- dispersion of cells into collagen after 4 hr [9]: did not exhibit significant dispersion
- dispersion of cells into collagen after 28 hr / entire incubation period [9]: only slight dispersion
- inhibition of mammosphere growth, MDA-MB-231 [5]: did not inhibit mammosphere growth
- Number of MDA-MB-231 mammospheres [5]: 141 ± 41
- Size (μm) of MDA-MB-231 mammospheres [5]: 98 ± 18 μm
- IC50 [6]: > 20 µM
- Number of MCF-7 mammospheres [7]: 255 ± 175
- Size (μm) of MCF-7 mammospheres [7]: 114 ± 24 μm
- Number of MDA-MB-231 secondary mammospheres [8]: 186 ± 45
- Size (μm) of MDA-MB-231 secondary mammospheres [8]: 85 ± 15 μm
- propensity to form secondary mammospheres [8]: only slight changes in size and number of mammospheres

Molecule: Cc1c(C)c(C)c(C)c(C)c1C.Clc1cccc([N+]2=Cc3ccc4ccccc4[n+]3[Ru-]2[Cl])c1.[Cl-] [Ru^TEN4, [(η6-Hexamethylbenzene)RuCl(3-chloro-N-(2-quinolinylmethylene)aniline)]Cl]
- IC50 ([1]; 72 h, MTT): 2.5 ± 0.7 µM
- IC50 ([3]; 72 h): 7.2 ± 1.8 µM
- IC50 [4, 10]: 9.2 ± 1.3 µM
- IC50 [4, 11]: 1.4 ± 0.3 µM
- dispersion of cells into collagen after 4 hr [9]: did not exhibit significant dispersion
- dispersion of cells into collagen after 28 hr / entire incubation period [9]: only slight dispersion
- Number of MDA-MB-231 mammospheres [5]: 118 ± 17
- Size (μm) of MDA-MB-231 mammospheres [5]: 95 ± 37 μm
- decrease in number of MDA-MB-231 mammospheres [5]: 17%
- decrease in size of MDA-MB-231 mammospheres [5]: 10%
- IC50 [6]: 11 µM
- Number of MCF-7 mammospheres [7]: 236 ± 88
- Size (μm) of MCF-7 mammospheres [7]: 105 ± 18 μm
- decrease in number of MCF-7 mammospheres [7]: 10%
- decrease in size of MCF-7 mammospheres [7]: 17%
- Number of MDA-MB-231 secondary mammospheres [8]: 91 ± 33
- Size (μm) of MDA-MB-231 secondary mammospheres [8]: 70 ± 6 μm
- propensity to form secondary mammospheres [8]: drastically reduced propensity to form secondary mammospheres

Molecule: abamectin
- IC50 ([1]; 72 h, MTT): 7 ± 2.2 µM
- IC50 ([3]; 72 h): 4 ± 0.5 µM
- IC50 [4, 10]: 18 ± 6 µM
- IC50 [4, 11]: 6.4 ± 2.3 µM
- Number of MDA-MB-231 mammospheres [5]: 4 ± 1
- Size (μm) of MDA-MB-231 mammospheres [5]: 76 ± 8 μm
- Number of MCF-7 mammospheres [7]: 147 ± 33
- Size (μm) of MCF-7 mammospheres [7]: 77 ± 13 μm
